Measured values as given in publication PMC6379637, “Consecutive influenza surveillance of neuraminidase mutations and neuraminidase inhibitor resistance in Japan” (Influenza and Other Respiratory Viruses, 2019).
Where “and” joins values, the source holds several entries; their conditions need not be identical. Equal values may be shown once. Read-outs that look alike come from different tables or passages of the source.

Assays:
A/H3N2 neuraminidase = type: biochemical, influenza A/H3N2 virus
[1] = test system: A/H1N1pdm09 neuraminidase; type: biochemical, influenza A/H1N1pdm09 virus
[2] = test system: influenza B neuraminidase; type: biochemical, influenza B virus
[3] = read-out: IC50 (nM), second column without sub-head (median IC50 value)

CC(=O)N[C@H]1[C@H]([C@H](O)[C@H](O)CO)OC(C(=O)O)=C[C@@H]1N=C(N)N [Zanamivir, zanamivir hydrate]
IC50 (A/H3N2 neuraminidase; [3]): 2.2 nM
IC50 (A/H3N2 neuraminidase; read-out: median IC50 value): 1.6 nM
IC50 (A/H3N2 neuraminidase; read-out: median IC50 values): 2.4 nM

CCOC(=O)C1=C[C@@H](OC(CC)CC)[C@H](NC(C)=O)[C@@H](N)C1 [Oseltamivir, oseltamivir phosphate]
IC50 (A/H3N2 neuraminidase; read-out: median IC50 values): 1.1 nM

CCC(CC)[C@H](NC(C)=O)[C@@H]1[C@H](O)[C@@H](C(=O)O)C[C@H]1N=C(N)N [Peramivir, peramivir hydrate]
reduced susceptibility class (RI/HRI, WHO criteria) [1]: RI (key: For A viruses, reduced inhibition (RI) was defined as a 10‐fold to 100‐fold increase in IC50 values; highly reduced inhibition (HRI) was defined as more than 100‐fold increase in IC50 values)
IC50 ([1]; read-out: median IC50 values): 0.3 nM and 0.5 nM and 0.4 nM
IC50 (A/H3N2 neuraminidase; read-out: IC50 (nM), median IC50 value (unheaded second column)): 1 nM
IC50 (A/H3N2 neuraminidase; [3]): 0.8 nM
IC50 (A/H3N2 neuraminidase; read-out: IC50 (nM), second unheaded column: median IC50 value): 0.7 nM
IC50 (A/H3N2 neuraminidase; read-out: median IC50 value): 0.7 nM
IC50 (A/H3N2 neuraminidase; read-out: median IC50 value (unheaded second column under IC50 (nM))): 0.7 nM
Fold change (IC50 / median IC50) [2]: 0.9 and 0.762 and 1.0 and 0.857 and 0.667 and 1.2 and 1.1 and 0.952
Fold change (ratio of IC50 to the median IC50 value) [2]: 0.8 and 1.1 and 0.7 and 0.76 and 1.0 and 1.3 and 1.2 and 0.9
IC50 ([2]; read-out: median IC50 values): 2.5 nM and 2.1 nM
